Results as given in ChEMBL document CHEMBL1147312, “1-Aryl Tetralin Lignans from Larrea tridentata” (J Nat Prod, 1989).
Active and inactive are the calls of the source. The rule behind the calls is not given here.

Test system: Rattus norvegicus
Assay: Anti-implantation activity in po dosed rat
Assay type: functional, organism-based

Row | Structure (SMILES) | Activity
1 | C[C@H]1[C@H](c2ccc(O)cc2)c2cc(O)c(O)cc2C[C@H]1C | Active
2 | C[C@H]1[C@H](c2ccc(O)c(O)c2)c2cc(O)c(O)cc2C[C@H]1C | inactive
